In paper doi:10.1101/2023.11.24.568596v1 (biorxiv, 2023):
One block for each compound: values may come before it.

What was measured:
Settings in all cases: binder
[1] = molecular target: ABL1 (Homo sapiens, UniProt P00519)
[2] = molecular target: BIKE (Homo sapiens, UniProt Q9NSY1)
[3] = molecular target: T1, BMPR2 (Homo sapiens, UniProt Q13873)
T1 sequence (Q13873 1-1038): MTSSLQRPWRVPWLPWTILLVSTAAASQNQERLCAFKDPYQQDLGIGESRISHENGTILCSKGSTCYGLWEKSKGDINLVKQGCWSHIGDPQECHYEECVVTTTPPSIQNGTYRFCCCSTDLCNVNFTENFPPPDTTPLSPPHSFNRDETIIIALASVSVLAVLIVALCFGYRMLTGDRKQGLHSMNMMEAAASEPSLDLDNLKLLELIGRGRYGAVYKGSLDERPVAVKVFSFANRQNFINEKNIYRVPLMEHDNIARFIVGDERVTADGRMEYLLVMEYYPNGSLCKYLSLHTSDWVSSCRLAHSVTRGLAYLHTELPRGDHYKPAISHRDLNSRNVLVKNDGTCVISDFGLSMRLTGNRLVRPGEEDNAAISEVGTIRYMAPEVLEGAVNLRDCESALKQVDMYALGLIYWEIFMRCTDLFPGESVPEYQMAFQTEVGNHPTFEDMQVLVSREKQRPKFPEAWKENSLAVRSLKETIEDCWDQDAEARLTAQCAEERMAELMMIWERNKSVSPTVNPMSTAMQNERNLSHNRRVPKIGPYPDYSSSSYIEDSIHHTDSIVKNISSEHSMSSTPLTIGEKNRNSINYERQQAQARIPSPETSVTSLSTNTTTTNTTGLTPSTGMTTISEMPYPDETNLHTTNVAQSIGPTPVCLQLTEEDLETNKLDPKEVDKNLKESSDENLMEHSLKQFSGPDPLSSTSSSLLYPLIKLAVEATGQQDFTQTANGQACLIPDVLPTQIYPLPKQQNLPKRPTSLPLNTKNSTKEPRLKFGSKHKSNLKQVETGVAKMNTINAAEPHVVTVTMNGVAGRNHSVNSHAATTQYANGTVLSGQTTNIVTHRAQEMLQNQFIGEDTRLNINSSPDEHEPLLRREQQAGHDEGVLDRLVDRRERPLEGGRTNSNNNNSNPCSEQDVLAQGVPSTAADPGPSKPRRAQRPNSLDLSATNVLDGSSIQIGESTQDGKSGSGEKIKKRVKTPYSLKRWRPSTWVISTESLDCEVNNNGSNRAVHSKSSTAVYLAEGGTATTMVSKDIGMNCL

[4] = molecular target: CDK2 (Homo sapiens, UniProt P24941)
[5] = molecular target: CHK2 (Homo sapiens, UniProt O96017)
[6] = molecular target: T2, DMPK1 (Homo sapiens, UniProt Q09013)
T2 sequence (Q09013 1-629): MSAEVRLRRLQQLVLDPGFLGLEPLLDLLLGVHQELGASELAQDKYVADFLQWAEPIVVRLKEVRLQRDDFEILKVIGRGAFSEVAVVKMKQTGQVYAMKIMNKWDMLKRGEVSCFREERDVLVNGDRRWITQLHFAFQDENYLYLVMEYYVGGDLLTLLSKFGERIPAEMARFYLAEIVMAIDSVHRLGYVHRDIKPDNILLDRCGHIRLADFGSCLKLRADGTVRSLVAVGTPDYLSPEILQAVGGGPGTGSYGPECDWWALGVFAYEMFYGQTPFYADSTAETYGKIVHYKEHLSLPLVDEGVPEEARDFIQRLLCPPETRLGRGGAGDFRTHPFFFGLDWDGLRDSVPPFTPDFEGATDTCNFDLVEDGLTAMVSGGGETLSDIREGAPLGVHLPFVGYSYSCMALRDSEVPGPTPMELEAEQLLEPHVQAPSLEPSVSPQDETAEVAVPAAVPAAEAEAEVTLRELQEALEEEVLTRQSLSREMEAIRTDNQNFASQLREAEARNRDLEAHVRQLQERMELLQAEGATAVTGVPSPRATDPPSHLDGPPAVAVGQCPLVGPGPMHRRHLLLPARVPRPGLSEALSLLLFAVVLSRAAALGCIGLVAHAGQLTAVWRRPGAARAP

[7] = molecular target: JNK3 (Homo sapiens, UniProt P53779)
[8] = molecular target: T3, PHKG2 (Homo sapiens, UniProt P15735)
T3 sequence (P15735 1-406): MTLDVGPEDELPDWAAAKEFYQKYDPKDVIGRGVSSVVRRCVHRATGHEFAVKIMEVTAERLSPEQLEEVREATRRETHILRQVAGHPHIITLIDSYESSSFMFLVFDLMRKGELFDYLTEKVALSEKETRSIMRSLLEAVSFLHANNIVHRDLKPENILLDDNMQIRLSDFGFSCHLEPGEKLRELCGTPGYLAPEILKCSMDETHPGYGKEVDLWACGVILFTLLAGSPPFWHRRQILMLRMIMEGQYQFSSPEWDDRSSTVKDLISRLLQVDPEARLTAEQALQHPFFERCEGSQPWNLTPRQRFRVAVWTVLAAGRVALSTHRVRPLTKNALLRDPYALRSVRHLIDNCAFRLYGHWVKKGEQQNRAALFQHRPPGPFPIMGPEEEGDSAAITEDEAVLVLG

CHK2, sequence (O96017 whole entry): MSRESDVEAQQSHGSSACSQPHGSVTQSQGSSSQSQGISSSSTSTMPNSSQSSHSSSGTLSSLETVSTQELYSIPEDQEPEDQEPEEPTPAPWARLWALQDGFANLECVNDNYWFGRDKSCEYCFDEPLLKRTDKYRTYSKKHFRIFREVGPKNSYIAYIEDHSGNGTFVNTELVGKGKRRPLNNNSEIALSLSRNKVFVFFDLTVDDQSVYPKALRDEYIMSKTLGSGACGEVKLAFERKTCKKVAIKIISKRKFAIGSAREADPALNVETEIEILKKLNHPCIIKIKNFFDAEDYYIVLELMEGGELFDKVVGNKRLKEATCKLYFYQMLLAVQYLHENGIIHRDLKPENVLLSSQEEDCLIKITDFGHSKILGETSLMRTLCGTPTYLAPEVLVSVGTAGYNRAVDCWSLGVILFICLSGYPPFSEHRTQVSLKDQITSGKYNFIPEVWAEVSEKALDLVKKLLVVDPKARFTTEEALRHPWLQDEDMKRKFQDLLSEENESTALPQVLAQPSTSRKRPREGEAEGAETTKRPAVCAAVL
JNK3, sequence (P53779 whole entry): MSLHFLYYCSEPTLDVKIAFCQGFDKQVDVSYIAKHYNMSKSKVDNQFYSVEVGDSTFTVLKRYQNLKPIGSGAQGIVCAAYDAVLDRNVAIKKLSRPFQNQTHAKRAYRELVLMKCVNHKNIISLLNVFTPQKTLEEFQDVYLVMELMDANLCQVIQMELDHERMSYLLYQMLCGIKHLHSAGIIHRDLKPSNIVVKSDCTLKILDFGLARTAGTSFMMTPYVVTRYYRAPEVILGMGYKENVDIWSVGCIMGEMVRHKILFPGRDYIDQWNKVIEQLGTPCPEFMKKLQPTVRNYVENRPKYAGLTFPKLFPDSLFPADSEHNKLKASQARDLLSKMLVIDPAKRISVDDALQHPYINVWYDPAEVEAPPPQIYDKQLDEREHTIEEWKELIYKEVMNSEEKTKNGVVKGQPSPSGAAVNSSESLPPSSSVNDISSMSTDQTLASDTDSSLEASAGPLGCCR
ABL1, sequence (P00519 whole entry): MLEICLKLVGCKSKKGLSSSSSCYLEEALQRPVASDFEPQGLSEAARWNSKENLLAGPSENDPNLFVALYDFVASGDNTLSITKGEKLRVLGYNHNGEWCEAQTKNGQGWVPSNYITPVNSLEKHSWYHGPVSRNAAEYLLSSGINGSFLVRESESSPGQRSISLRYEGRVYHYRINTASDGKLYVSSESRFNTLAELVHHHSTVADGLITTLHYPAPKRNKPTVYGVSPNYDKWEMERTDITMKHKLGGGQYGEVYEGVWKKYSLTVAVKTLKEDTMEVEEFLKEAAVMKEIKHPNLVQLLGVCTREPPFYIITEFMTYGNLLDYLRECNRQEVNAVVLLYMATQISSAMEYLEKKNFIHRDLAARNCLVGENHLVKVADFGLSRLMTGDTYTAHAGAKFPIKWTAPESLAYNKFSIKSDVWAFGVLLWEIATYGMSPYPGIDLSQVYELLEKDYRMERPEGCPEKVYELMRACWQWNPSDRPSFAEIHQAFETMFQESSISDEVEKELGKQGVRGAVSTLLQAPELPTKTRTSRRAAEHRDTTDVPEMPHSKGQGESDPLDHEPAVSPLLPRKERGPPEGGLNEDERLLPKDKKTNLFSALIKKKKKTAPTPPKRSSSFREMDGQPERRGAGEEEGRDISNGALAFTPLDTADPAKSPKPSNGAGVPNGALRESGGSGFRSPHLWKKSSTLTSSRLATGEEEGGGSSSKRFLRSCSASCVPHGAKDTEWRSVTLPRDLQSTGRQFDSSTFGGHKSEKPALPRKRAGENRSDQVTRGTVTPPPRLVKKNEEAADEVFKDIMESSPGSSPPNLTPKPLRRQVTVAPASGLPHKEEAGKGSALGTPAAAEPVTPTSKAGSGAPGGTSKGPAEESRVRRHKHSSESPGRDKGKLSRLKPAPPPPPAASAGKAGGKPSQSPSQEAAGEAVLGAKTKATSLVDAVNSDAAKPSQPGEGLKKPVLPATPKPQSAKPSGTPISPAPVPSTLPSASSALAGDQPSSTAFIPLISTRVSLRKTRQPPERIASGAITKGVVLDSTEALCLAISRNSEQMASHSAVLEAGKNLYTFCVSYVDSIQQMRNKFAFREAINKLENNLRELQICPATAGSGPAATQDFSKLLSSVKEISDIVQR
BIKE, sequence (Q9NSY1 whole entry): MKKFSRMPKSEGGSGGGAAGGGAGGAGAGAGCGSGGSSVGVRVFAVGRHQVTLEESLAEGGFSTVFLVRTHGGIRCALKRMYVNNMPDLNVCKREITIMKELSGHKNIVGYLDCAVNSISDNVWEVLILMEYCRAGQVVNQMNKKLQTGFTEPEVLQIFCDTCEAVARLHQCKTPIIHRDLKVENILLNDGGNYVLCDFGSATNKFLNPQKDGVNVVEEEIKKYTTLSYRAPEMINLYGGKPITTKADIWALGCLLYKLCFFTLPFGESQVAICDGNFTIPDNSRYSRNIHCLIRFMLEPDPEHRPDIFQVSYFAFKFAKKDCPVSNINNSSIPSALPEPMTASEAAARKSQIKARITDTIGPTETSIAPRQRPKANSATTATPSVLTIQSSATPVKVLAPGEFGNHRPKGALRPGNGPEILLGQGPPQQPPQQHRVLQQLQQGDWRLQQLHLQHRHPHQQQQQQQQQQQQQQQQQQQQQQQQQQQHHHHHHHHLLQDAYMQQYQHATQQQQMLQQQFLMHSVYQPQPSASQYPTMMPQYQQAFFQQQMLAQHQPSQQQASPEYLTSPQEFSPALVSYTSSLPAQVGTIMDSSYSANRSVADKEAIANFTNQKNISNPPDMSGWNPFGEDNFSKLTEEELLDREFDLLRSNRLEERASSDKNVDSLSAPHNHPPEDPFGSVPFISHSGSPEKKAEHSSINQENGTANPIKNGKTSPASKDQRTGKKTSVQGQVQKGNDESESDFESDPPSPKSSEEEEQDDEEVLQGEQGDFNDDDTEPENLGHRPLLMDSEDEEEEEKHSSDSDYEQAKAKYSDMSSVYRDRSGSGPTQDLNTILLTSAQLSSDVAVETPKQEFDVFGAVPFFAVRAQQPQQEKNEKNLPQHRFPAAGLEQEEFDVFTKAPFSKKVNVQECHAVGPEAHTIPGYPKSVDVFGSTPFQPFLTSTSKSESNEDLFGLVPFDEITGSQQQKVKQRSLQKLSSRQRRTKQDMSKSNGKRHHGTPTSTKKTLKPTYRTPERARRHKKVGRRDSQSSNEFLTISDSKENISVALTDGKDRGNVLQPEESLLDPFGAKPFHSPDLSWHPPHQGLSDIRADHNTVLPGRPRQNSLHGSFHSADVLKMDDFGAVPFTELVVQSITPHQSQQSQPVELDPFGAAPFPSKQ

Structure (SMILES): Cc1cccc(-c2ccc(-c3cc4cnc(Nc5cc(C(F)(F)F)ccc5C)nc4n(CCCCN)c3=O)c(Cl)c2)n1 [compound 28, 8-(4-Aminobutyl)-6-(2-chloro-4-(6-methylpyridin-2-yl)phenyl)-2-((2-methyl-5-(trifluoromethyl)phenyl)amino)pyrido[2,3-d]pyrimidin-7(8H)-one]
ΔTm 28 [1]: 6.9 °C
ΔTm 28 [2]: 0.3 °C
ΔTm 28 [3]: -0.1 °C
ΔTm 28 [4]: -0.2 °C
ΔTm 28 [5]: 4.6 °C
ΔTm 28 [6]: -2.4 °C
ΔTm 28 [7]: 3.5 °C
ΔTm 28 [8]: 2.4 °C

Structure (SMILES): Cc1cccc(-c2ccc(-c3cc4cnc(NCCCN5CCCC5=O)nc4n(CCCCN)c3=O)c(Cl)c2)n1 [compound 27, MR30]
ΔTm MR30 (27) [1]: 3.0 °C
ΔTm MR30 (27) [2]: 0.4 °C
ΔTm MR30 (27) [3]: -0.1 °C
ΔTm MR30 (27) [4]: 1.4 °C
ΔTm MR30 (27) [5]: 2.5 °C
ΔTm MR30 (27) [6]: -1.4 °C
ΔTm MR30 (27) [7]: 1.7 °C
ΔTm MR30 (27) [8]: 1.2 °C

Structure (SMILES): Cc1cccc(-c2ccc(-c3cc4cnc(Nc5ccc(C)c(O)c5)nc4n(CCCCN)c3=O)c(Cl)c2)n1 [compound 32, 8-(4-Aminobutyl)-6-(2-chloro-4-(6-methylpyridin-2-yl)phenyl)-2-((3-hydroxy-4-methylphenyl)amino)pyrido[2,3-d]pyrimidin-7(8H)-one]
ΔTm 32 [1]: 10.8 °C
ΔTm 32 [2]: 6.6 °C
ΔTm 32 [3]: -0.4 °C
ΔTm 32 [4]: 5.3 °C
ΔTm 32 [5]: 11.0 °C
ΔTm 32 [6]: -4.5 °C
ΔTm 32 [7]: 4.5 °C
ΔTm 32 [8]: 6.4 °C

Structure (SMILES): Cc1cccc(-c2ccc(-c3cc4cnc(NCCCN5CCNCC5)nc4n(CCCCN)c3=O)c(Cl)c2)n1 [compound 29, 8-(4-Aminobutyl)-6-(2-chloro-4-(6-methylpyridin-2-yl)phenyl)-2-((3-(piperazin-1-yl)propyl)amino)pyrido[2,3-d]pyrimidin-7(8H)-one]
ΔTm 29 [1]: 4.0 °C
ΔTm 29 [2]: 0.7 °C
ΔTm 29 [3]: 0.0 °C
ΔTm 29 [4]: 0.9 °C
ΔTm 29 [5]: 2.4 °C
ΔTm 29 [6]: -1.3 °C
ΔTm 29 [7]: 0.8 °C
ΔTm 29 [8]: 2.2 °C

Further lines, results first:

ΔTm 30 [1]: 10.3 °C
ΔTm 30 [2]: 6.4 °C
ΔTm 30 [3]: -0.2 °C
ΔTm 30 [4]: 4.8 °C
ΔTm 30 [5]: 10.4 °C
ΔTm 30 [6]: -5.0 °C
ΔTm 30 [7]: 4.6 °C
ΔTm 30 [8]: 6.7 °C
Structure (SMILES): Cc1cccc(-c2ccc(-c3cc4cnc(Nc5ccc(CCCO)cc5)nc4n(CCCCN)c3=O)c(Cl)c2)n1 [compound 30, 8-(4-Aminobutyl)-6-(2-chloro-4-(6-methylpyridin-2-yl)phenyl)-2-((4-(3-hydroxypropyl)phenyl)amino)pyrido[2,3-d]pyrimidin-7(8H)-one]

ΔTm 31 [1]: 10.6 °C
ΔTm 31 [2]: 6.5 °C
ΔTm 31 [3]: 1.0 °C
ΔTm 31 [4]: 6.7 °C
ΔTm 31 [5]: 11.2 °C
ΔTm 31 [6]: -2.0 °C
ΔTm 31 [7]: 4.7 °C
ΔTm 31 [8]: 6.4 °C
Structure (SMILES): Cc1cccc(-c2ccc(-c3cc4cnc(Nc5ccc(O)cc5)nc4n(CCCCN)c3=O)c(Cl)c2)n1 [compound 31, 8-(4-Aminobutyl)-6-(2-chloro-4-(6-methylpyridin-2-yl)phenyl)-2-((4-hydroxyphenyl)amino) pyrido[2,3-d]pyrimidin-7(8H)-one]
